{"source": "patent US12385076B2", "about": "“Preparation and application of high-activity and high-safety cardamine violifolia selenoprotein standard sample” (priority 2022, dated 2025)", "test_system": "rat liver", "assay": "Safety animal testing: 3-month repeated oral administration, liver lesions", "type": "in vivo", "details": "male rats, repeated oral administration for 3 months; dose equivalent to 96 μgSe/kg BW for the human body"}
{"smiles": "O=[Se](O)O", "note": "[sodium selenite]", "values": [{"measurement": "liver lesions", "result": "caused liver lesions"}]}
